The target in one assay is rat orexin 1 receptor (Rattus norvegicus, UniProt P56718). Description: Rat orexin 1 receptor radioligand binding (competitive, [3H]-SB674042, HEK293 cell preparations).
Another assay has as its target human orexin 2 receptor (Homo sapiens (Human), UniProt O43614). In words: Human orexin 2 receptor radioligand binding (competitive, [3H]-EMPA, HEK293 cell preparations).
Setting [1] is: rat orexin 1 receptor, [3H]-SB674042 competition binding, read-out: rOX1 Ki (nm).
[2] abbreviates: human orexin 2 receptor, [3H]-EMPA competition binding, read-out: hOX2 Ki (nm).

The structures appear in SMILES notation. Where two headings read alike, the source gives them in different places. Where only a bound is given, the exact number is not on record here.

Chain of human orexin 2 receptor (O43614 whole entry): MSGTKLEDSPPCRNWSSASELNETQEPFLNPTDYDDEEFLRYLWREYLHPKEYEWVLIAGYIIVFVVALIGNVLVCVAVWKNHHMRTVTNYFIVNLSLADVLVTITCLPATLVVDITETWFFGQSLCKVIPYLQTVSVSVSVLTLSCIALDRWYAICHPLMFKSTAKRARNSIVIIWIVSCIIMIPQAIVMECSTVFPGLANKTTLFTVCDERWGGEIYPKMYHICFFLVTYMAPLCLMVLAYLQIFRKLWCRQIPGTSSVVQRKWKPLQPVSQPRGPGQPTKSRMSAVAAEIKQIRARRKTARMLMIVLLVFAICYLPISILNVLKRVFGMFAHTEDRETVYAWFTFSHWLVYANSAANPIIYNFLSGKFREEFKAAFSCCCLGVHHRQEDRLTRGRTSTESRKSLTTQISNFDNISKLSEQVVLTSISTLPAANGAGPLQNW

Take `CCOc1ccc(C)nc1C(=O)N1C2CCC1C(Nc1ccc(Br)cn1)C2` (racemic) [Example 219, (±)-(2-((5-bromopyridin-2-yl)amino)-7-azabicyclo[2.2.1]heptan-7-yl)(3-ethoxy-6-methylpyridin-2-yl)methanone]: the Ki was found to be 0.257 µM at rat orexin 1 receptor (setting [1]) and 1.7 µM at human orexin 2 receptor (setting [2]).
`COc1c(F)cccc1C(=O)N1C2CCC1C(Nc1ncc(C(F)(F)F)cn1)C2` (racemic) [Example 222, (±)-(3-fluoro-2-methoxyphenyl)(2-(5-(trifluoromethyl)pyrimidin-2-yl)amino)-7-azabicyclo[2.2.1]heptan-7-yl)methanone]: the values for the Ki at rat orexin 1 receptor (rOX1 Ki (nm)) and on human orexin 2 receptor (setting [2]) were 4.8 µM and > 10 µM, respectively.
Take `Cc1ccc(-n2nccn2)c(C(=O)N2C3CCC2C(Nc2ncc(C(F)(F)F)cn2)C3)n1` (racemic) [Example 223, (±)-(6-methyl-3-(2H-1,2,3-triazol-2-yl)pyridin-2-yl)(2-((5-(trifluoromethyl)pyrimidin-2-yl)amino)-7-azabicyclo[2.2.1]heptan-7-yl)methanone]: the Ki turned out to be 0.55 µM on rat orexin 1 receptor (rOX1 Ki (nm)) and 4 µM on human orexin 2 receptor (setting [2]).
With `Cc1ccc(-c2ncccn2)c(C(=O)N2C3CCC2C(Nc2ncc(C(F)(F)F)cn2)C3)n1` (racemic) [Example 225, (±)-(6-methyl-3-(pyrimidin-2-yl)pyridin-2-yl)(2-(5-(trifluoromethyl)pyrimidin-2-yl)amino)-7-azabicyclo[2.2.1]heptan-7-yl)methanone], the Ki at rat orexin 1 receptor (setting [1]) was 0.53 µM; at human orexin 2 receptor (setting [2]) it was 3.3 µM.
Consider `COc1c(F)cccc1C(=O)N1C2CCC1C(Nc1ncc(C(F)(F)F)cn1)C2` (racemic) [Example 226, (±)-(3-fluoro-2-methoxyphenyl)(2-(5-(trifluoromethyl)pyrimidin-2-yl)amino)-7-azabicyclo[2.2.1]heptan-7-yl)methanone], for which the Ki at rat orexin 1 receptor (rOX1 Ki (nm)) and on human orexin 2 receptor (setting [2]) was > 10 µM in each case.
As for `Cc1ccc(-n2nccn2)c(C(=O)N2C3CCC2C(Nc2ncc(C(F)(F)F)cn2)C3)n1` (racemic) [Example 228, (±)-(6-methyl-3-(2H-1,2,3-triazol-2-yl)pyridin-2-yl)(2-((5-(trifluoromethyl)pyrimidin-2-yl)amino)-7-azabicyclo[2.2.1]heptan-7-yl)methanone], the Ki on rat orexin 1 receptor (rOX1 Ki (nm)) and at human orexin 2 receptor (setting [2]) was > 10 µM each time.
`Cc1ccc(-n2nccn2)c(C(=O)N2C3CCC2C(Nc2cnc4ccccc4n2)C3)n1` (racemic) [Example 230, (±)-(6-methyl-3-(2H-1,2,3-triazol-2-yl)pyridin-2-yl)(2-(quinoxalin-2-ylamino)-7-azabicyclo[2.2.1]heptan-7-yl)methanone]: the Ki on rat orexin 1 receptor (rOX1 Ki (nm)) and on human orexin 2 receptor (hOX2 Ki (nm)) was > 10 µM in each case.
As to `COc1c(F)cccc1C(=O)N1C2CCC1C(Nc1ccc(F)cn1)C2` (racemic) [Example 237, (±)-(3-fluoro-2-methoxyphenyl)(2-(((5-fluoropyridin-2-yl)amino)-7-azabicyclo[2.2.1]heptan-7-yl)methanone], the Ki at rat orexin 1 receptor (rOX1 Ki (nm)) and at human orexin 2 receptor (hOX2 Ki (nm)) was > 10 µM throughout.
Regarding `O=C(c1cccc(F)c1-c1ncccn1)N1C2CCC1C(Oc1ncc(C(F)(F)F)cn1)C2` (racemic) [Example 286, (±)-(3-fluoro-2-(pyrimidin-2-yl)phenyl)(2-((5-(trifluoromethyl)pyrimidin-2-yl)oxy)-7-azabicyclo[2.2.1]heptan-7-yl)methanone], the Ki at rat orexin 1 receptor (setting [1]) and at human orexin 2 receptor (setting [2]) was > 10 µM in each case.
Regarding `Cc1ccc(-c2ncccn2)c(C(=O)N2[C@H]3CC[C@@H]2[C@@H](COc2ccccn2)C3)n1` (single isomer, unassigned) [Example 3B, (6-methyl-3-(pyrimidin-2-yl)pyridin-2-yl)((1R*,2S*,4S*)-2-((pyridin-2-yloxy)methyl)-7-azabicyclo[2.2.1]heptan-7-yl)methanone], the Ki at rat orexin 1 receptor (rOX1 Ki (nm)) and on human orexin 2 receptor (hOX2 Ki (nm)) was > 10 µM each time.
Turning to `COc1c(F)cccc1C(=O)N1C2CCC1C(Nc1cnc3ccccc3n1)C2` (single isomer, unassigned) [Example 206, (±)-(3-fluoro-2-methoxyphenyl)(2-(quinoxalin-2-ylamino)-7-azabicyclo[2.2.1]heptan-7-yl)methanone], the Ki worked out at 1.2 µM on rat orexin 1 receptor (setting [1]) and 1.5 µM at human orexin 2 receptor (setting [2]).
In the same order, the values of `CCOc1ccc(C)nc1C(=O)N1C2CCC1C(Nc1ncc(C(F)(F)F)cn1)C2` (single isomer, unassigned) [Example 224, (±)-(3-ethoxy-6-methylpyridin-2-yl)(2-(5-(trifluoromethyl)pyrimidin-2-yl)amino)-7-azabicyclo[2.2.1]heptan-7-yl)methanone] are 2.5 µM and 7.4 µM.
Consider `CCOc1ccc(C)nc1C(=O)N1C2CCC1C(Nc1ncc(C(F)(F)F)cn1)C2` (single isomer, unassigned) [Example 227, (±)-(3-ethoxy-6-methylpyridin-2-yl)(2-(5-(trifluoromethyl)pyrimidin-2-yl)amino)-7-azabicyclo[2.2.1]heptan-7-yl)methanone], for which the Ki at rat orexin 1 receptor (setting [1]) and on human orexin 2 receptor (setting [2]) was > 10 µM in each case.
`CCOc1ccc(C)nc1C(=O)N1C2CCC1C(Nc1cnc3ccccc3n1)C2` (single isomer, unassigned) [Example 229, (±)-(3-ethoxy-6-methylpyridin-2-yl)(2-(quinoxalin-2-ylamino)-7-azabicyclo[2.2.1]heptan-7-yl)methanone]: the Ki on rat orexin 1 receptor (setting [1]) and at human orexin 2 receptor (setting [2]) was > 10 µM in each case.
Consider `COc1c(F)cccc1C(=O)N1C2CCC1C(Nc1cnc3ccccc3n1)C2` (single isomer, unassigned) [Example 231, (±)-(3-fluoro-2-methoxyphenyl)(2-(quinoxalin-2-ylamino)-7-azabicyclo[2.2.1]heptan-7-yl)methanone], for which the Ki on rat orexin 1 receptor (setting [1]) and at human orexin 2 receptor (setting [2]) was > 10 µM in each case.
Regarding `O=C(c1cccc(F)c1-c1ncccn1)N1C2CCC1C(Oc1ncc(C(F)(F)F)cn1)C2` (single isomer, unassigned) [Example 285, (±)-(3-fluoro-2-(pyrimidin-2-yl)phenyl)(2-(5-(trifluoromethyl)pyrimidin-2-yl)oxy)-7-azabicyclo[2.2.1]heptan-7-yl)methanone], the Ki on rat orexin 1 receptor (setting [1]) is 0.72 µM; on human orexin 2 receptor (setting [2]), > 10 µM.
In the same order, the values of `Cc1coc(-c2ccc(C)nc2C(=O)N2[C@@H]3CC[C@H]2[C@H](COc2ccccn2)C3)n1` [Example 178, (6-methyl-3-(4-methyloxazol-2-yl)pyridin-2-yl)((1S,2R,4R)-2-((pyridin-2-yloxy)methyl)-7-azabicyclo[2.2.1]heptan-7-yl)methanone] are 0.964 µM and > 10 µM.
Turning to `O=C(c1cncc2ccccc12)N1[C@@H]2CC[C@H]1[C@H](Nc1cnc(C(F)(F)F)cn1)C2` [Example 240, isoquinolin-4-yl((1S,2R,4R)-2-((5-(trifluoromethyl)pyrazin-2-yl)amino)-7-azabicyclo[2.2.1]heptan-7-yl)methanone], the Ki at rat orexin 1 receptor (setting [1]) came to 0.4 µM; on human orexin 2 receptor (setting [2]) it was 2.1 µM.
For the compound `Cc1ccc(C(=O)N2[C@@H]3CC[C@H]2[C@H](Nc2cnc(C(F)(F)F)cn2)C3)c(-n2nccn2)n1` [Example 247, (6-methyl-2-(2H-1,2,3-triazol-2-yl)pyridin-3-yl)((1S,2R,4R)-2-((5-(trifluoromethyl)pyrazin-2-yl)amino)-7-azabicyclo[2.2.1]heptan-7-yl)methanone], the results for the Ki on rat orexin 1 receptor (setting [1]) and on human orexin 2 receptor (setting [2]) were 0.42 µM and 1.13 µM, respectively.

By Ki is commonly meant a measure of affinity in units of concentration, obtained from inhibition or displacement.

Values taken from patent US9062078B2, “Substituted 7-azabicyles and their use as orexin receptor modulators” (priority 2013, dated 2015).
